Assay results published in US4835160A, “Derivatives of pyridoindole, having anti-tumor properties” (Sanofi, priority 1986, dated 1989).

Assays:
[1] = tested on: reticulosarcoma M5-M5076; assay: Test for reticulosarcoma M5-M5076; format: in vivo, BDF1 hybrid mice; conditions: D1,5,9,13,17; for Number of survivors: day D75; for T/C %: survival time
Procedure: (§1) The antitumour activity was tested in vivo on various tumours inoculated in various ways according to the following general protocol:
(§2) All the male or female mice are inoculated on day D0 with a known quantity of viable tumour cells for ascitic tumours or with a known tumour fragment for solid tumours.
(§3) They are then distributed into various groups. Each group, corresponding to the animals treated by the product under test, is made up of 10 mice. The product under test is dissolved in distilled water and it is administered n times (Dx-Dy), n, y, and x varying according to the protocol chosen, at the rate of 0.1 ml of solution per 10 g by weight of mice treated and at specific doses for each protocol.
(§4) The "negative control" group, corresponding to the animals which are not treated by the product, contains 2√N animals, N being equal to or greater than the total number of mice treated by the product in the same experiment.
(§5) Finally, the tests can also be carried out at the same time as the study of a group called "positive control", of ten animals, which is treated by a molecule, known for its antitumour activity and which can vary according to the protocol chosen, in the same conditions as the groups treated by the product under test.
(§6) The antitumour activity is evaluated, in the case of ascitic tumours, by considering the increase in the survival time of the animals treated in comparison to that of the animals in the "negative control" group, according to the formula: [formula]
(§7) Also, a product is considered as toxic at the dose studied when this T/C value is equal to or less than 85%. In addition, a product is also considered as toxic at the dose studied when the weight variation, expressed in grams and calculated by the formula: […]
The tests are carried out with BDF1 hybrid mice inoculated by intraperitoneal route with 10^6 cells of the M5-M5076 line. The compound under test is administered 5 times successively in sequence (D1,5,9,13,17) by intraperitoneal route. The positive control for the test is cyclophosphamide administered in the same conditions. The number of surviving animals is evaluated on day D75.

[2] = tested on: leukemia tumour line L 1210; assay: In vitro cytotoxic activity on leukemia tumour line L 1210; format: cell-based; conditions: Mus musculus, L1210, 48 h, L 1210, 48 hours contact, 37° C.; read-out: I D 50 (concentration which inhibits the proliferation of the cells by 50%)
In short: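 Exponentially growing L 1210 leukemia cells were exposed to increasing compound concentrations at 37 °C under CO2 and counted every 24 h. ID50, the concentration inhibiting proliferation by 50%, was calculated after 48 h contact.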

[3] = tested on: leukemia L 1210; assay: Test for leukemia L 1210, IP/IP, D1-D5; format: in vivo, CDF1 hybrid mice; conditions: for Number of survivors: day D60; for T/C %: survival time
Procedure: as §1, §2, §3, §4, §5, §6, §7
(c) Test for leukemia L 1210, IP/IP, D-5 (GERAN et al., Cancer cheomother.,1972, 2, 07-57).
(§8) The tests are carried out with CDF1 hybrid mice inoculated by intraperitoneal route with 10^5 leukemia cells from the L 1210 line. The compound under test is administered for 5 days (D1-D5) by intraperitoneal route. The positive control for the test is 5-fluorouracile administered in the same conditions. The number of surviving animals is evaluated on day D60.

[4] = tested on: leukemia L 1210; assay: Test for leukemia L 1210 IP/D1 IV; format: in vivo, CDF1 hybrid mice; conditions: 20 mg/kg IV
Procedure: as §1, §2, §3, §4, §5, §6, §7, §8
(g) Test for leukemia L 1210 IP/D1 IV. (GERAN et al., Cancer Chemother., 1972, 2, 07-57).
The test is carried out according to the same protocol as that described for test (c), the compound under test being administered by intravenous route only on day D1.

## CCN(CC)CCCNc1ncc(C)c2[nH]c3ccc(O)cc3c12 [Derivative No. 7, 1-(diethylaminopropylamino)-8-hydroxy-4-methyl-5H-pyrido[4,3-b]indole]
[1]; 2.5 mg/kg IP
  Median day of survival: 31.25 days
  Variation by weight: -1.0 g
  Number of survivors: 0/10
  T/C %: 120%
[1]; 5 mg/kg IP
  Median day of survival: 33.0 days
  Variation by weight: -1.4 g
  Number of survivors: 1/10
  T/C %: 127%
[1]; 10 mg/kg IP
  Median day of survival: 37.25 days
  Variation by weight: -1.8 g
  Number of survivors: 0/10
  T/C %: 143%
[1]; 20 mg/kg IP
  Median day of survival: 41.0 days
  Variation by weight: -1.9 g
  Number of survivors: 0/10
  T/C %: 158%
[1]; 40 mg/kg IP
  Median day of survival: 42.0 days
  Variation by weight: -1.8 g
  Number of survivors: 1/10
  T/C %: 161%
[2]
  IC50: 60 nM
[3]; 0.625 mg/kg IP
  Median day of survival: 11.75 days
  Variation by weight: -0.9 g
  Number of survivors: 0/10
  T/C %: 133%
[3]; 1.25 mg/kg IP
  Median day of survival: 14.25 days
  Variation by weight: -1.2 g
  Number of survivors: 0/10
  T/C %: 162%
[3]; 2.5 mg/kg IP
  Median day of survival: 20.75 days
  Variation by weight: -1.1 g
  Number of survivors: 4/10
  T/C %: 236%
[3]; 5 mg/kg IP
  Median day of survival: 14.0 days
  Variation by weight: -0.8 g
  Number of survivors: 2/10
  T/C %: 159%
[3]; 10 mg/kg IP
  Median day of survival: 37.0 days
  Variation by weight: -2.2 g
  Number of survivors: 5/10
  T/C %: 420%
[3]; 20 mg/kg IP
  Median day of survival: 35.0 days
  Variation by weight: -4.2 g
  Number of survivors: 5/10
  T/C %: 398%
[3]; 30 mg/kg IP
  Median day of survival: 8.25 days
  Variation by weight: -5.6 g
  Number of survivors: 0/10
  T/C %: 94%

## Cc1cnc(NCCCN(C)C)c2c1[nH]c1ccc(O)cc12 [Derivative No. 10, 1-(3-dimethylaminopropylamino)-8-hydroxy-4-methyl-5H-pyrido[4,3-b]indole]
[1]; 1.25 mg/kg IP
  Median day of survival: 34.0 days
  Variation by weight (g): +2.7 g
  Number of survivors: 1/10
  T/C %: 133%
[1]; 2.5 mg/kg IP
  Median day of survival: 33.0 days
  Variation by weight (g): +0.4 g
  Number of survivors: 1/10
  T/C %: 129%
[1]; 5 mg/kg IP
  Median day of survival: 40.0 days
  Variation by weight (g): +2.1 g
  Number of survivors: 1/10
  T/C %: 156%
[1]; 10 mg/kg IP
  Median day of survival: 42.0 days
  Variation by weight (g): +1.2 g
  Number of survivors: 1/10
  T/C %: 164%
[1]; 20 mg/kg IP
  Median day of survival: 44.75 days
  Variation by weight: 0.0 g
  Number of survivors: 1/10
  T/C %: 175%
[1]; 40 mg/kg IP
  Median day of survival: 46.0 days
  Variation by weight: -2.8 g
  Number of survivors: 2/10
  T/C %: 180%
[3]; 1.25 mg/kg IP
  Median day of survival: 12.75 days
  Variation by weight: -1.7 g
  Number of survivors: 1/10
  T/C %: 145%
[3]; 2.5 mg/kg IP
  Median day of survival: 20.0 days
  Variation by weight: -2.1 g
  Number of survivors: 4/10
  T/C %: 227%
[3]; 5 mg/kg IP
  Median day of survival: > 60 days
  Variation by weight: -2.7 g
  Number of survivors: 6/10
  T/C %: > 682%
[3]; 10 mg/kg IP
  Median day of survival: 15.25 days
  Variation by weight: -3.1 g
  Number of survivors: 4/10
  T/C %: 173%
[3]; 20 mg/kg IP
  Median day of survival: 8.4 days
  Variation by weight: -5.6 g
  Number of survivors: 0/10
  T/C %: 95%

## Cc1cnc(NCCCN(C)C)c2c3cc(O)ccc3n(C)c12 [Derivative No. 14, 4,5-dimethyl 1(3-dimethylaminopropylamino)-8-hydroxy-5H-pyrido[4,3-b]indole]
[2]
  IC50: 14 nM
[4]
  Median day of survival: 14.0 days
  Variation by weight: -1.1 g
[4]; day D60
  Number of survivors: 0/10
[4]; survival time
  T/C %: 157%
